One may read the inhibition as the drop in the measured response relative to a control, in per cent. The pIC50 is the IC50 on a negative log10 scale, so that one unit is a factor of ten. Low values mean a high IC50, high ones a low IC50.

pIC50: −log10 of the molar value. Counter-ions that a name gives are not always drawn. Like-named read-outs stand apart in the source and are kept apart here. Some results are limits rather than exact numbers.

Assay [1] relates to mice. In words: Forced swimming test (FST) in mice. In kind it is in vivo. To be noted: Mus musculus. As to the method:
(§1) 3. In Vivo Drug Efficacy Test (Mouse Forced Swimming Model)
(§2) Experimental animals: C57BL/6 mice (Shanghai Xipuer-Bikai Experimental Animal Co., Ltd.), male, 6 weeks old, weighing 15-20 g. ICR mice (Shanghai Xipuer-Bikai Experimental Animal Co., Ltd.), male, 6 weeks old, weighing 20-25 g. All the ordered mice were fed in a standard environment for 2-3 weeks before test.
Forced Swimming Test (FST): in the forced swimming apparatus, the water level is 45 cm, and the water temperature is 25° C. Before the experiment, the mice were placed in the experimental room for 1 h for adapting to the environment. At the beginning of the experiment, the mice were placed in the apparatus for 6min, and the whole process was recorded with a camera. When analyzing the data, only the immobility time of the mice in the last 4 min was counted, and the result was expressed by mean±SD.
(§3) The results were analyzed by one-way analysis of variance. […] FST: Forced swimming test; TST: Tail suspension test.

Assay [2] has as its target T1, human recombinant 5-HT3 receptor (Homo sapiens, UniProt P46098).
T1 construct: expressed in transfected cells; host or cells: HEK293 (membrane preparation)
T1 sequence (P46098 24-478): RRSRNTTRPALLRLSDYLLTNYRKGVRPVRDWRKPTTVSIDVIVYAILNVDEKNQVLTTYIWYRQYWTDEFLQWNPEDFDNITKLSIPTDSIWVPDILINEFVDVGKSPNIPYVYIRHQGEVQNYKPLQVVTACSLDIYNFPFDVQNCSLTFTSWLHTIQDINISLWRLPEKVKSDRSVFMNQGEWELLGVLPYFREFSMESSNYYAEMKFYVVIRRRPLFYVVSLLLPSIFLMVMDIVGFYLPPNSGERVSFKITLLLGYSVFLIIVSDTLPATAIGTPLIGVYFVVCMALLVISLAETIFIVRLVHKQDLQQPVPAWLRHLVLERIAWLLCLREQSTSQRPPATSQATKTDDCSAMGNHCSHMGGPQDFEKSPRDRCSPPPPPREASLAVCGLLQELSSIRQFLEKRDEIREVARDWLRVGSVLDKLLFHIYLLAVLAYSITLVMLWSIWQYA
In words: 5-HT3 receptor affinity assay (3H-BRL 43694 radioligand binding). The conditions noted are these: read-out: inhibition (%) at 1 μM.

In assay [3] the target is T2, hSERT (5-HTT) in HEK293-hSERT cells (Homo sapiens, UniProt P31645).
T2 construct: expressed in transfected cells; host or cells: HEK293
The experiment in a line: 5-HTT reuptake activity assay (fluorescence neurotransmitter transporter uptake kit). In kind it is cell-based. The conditions noted are these: serotonin reuptake inhibition.

The subject of assay [4] is mice. The experiment in a line: Tail suspension test (TST) in mice. In kind it is in vivo. To be noted: Mus musculus, ip. How it is done:
as §1, §2
Tail suspension test (TST): the mice were tail fixed to the apparatus with a medical tape for 6 min, the whole process was recorded by the camera. When analyzing the data, only the immobility time of the mice in the last 4 min was counted.
as §3

Setting [5] is: po, read-out: Effective dose (mg/kg).
Setting [6] is: 1 μM compound, 0.5 nM 3H-BRL 43694, HEK293 membranes.
Setting [7] is: read-out: Effective dose (mg/kg).
[8] abbreviates: TST, dose significantly reducing immobility time of mice, read-out: Effective dose.
[9] abbreviates: ip, read-out: Effective dose (mg/kg).
Setting [10] is: po, FST, dose significantly reducing immobility time of mice, read-out: Effective dose.

T2 sequence (P31645 whole entry): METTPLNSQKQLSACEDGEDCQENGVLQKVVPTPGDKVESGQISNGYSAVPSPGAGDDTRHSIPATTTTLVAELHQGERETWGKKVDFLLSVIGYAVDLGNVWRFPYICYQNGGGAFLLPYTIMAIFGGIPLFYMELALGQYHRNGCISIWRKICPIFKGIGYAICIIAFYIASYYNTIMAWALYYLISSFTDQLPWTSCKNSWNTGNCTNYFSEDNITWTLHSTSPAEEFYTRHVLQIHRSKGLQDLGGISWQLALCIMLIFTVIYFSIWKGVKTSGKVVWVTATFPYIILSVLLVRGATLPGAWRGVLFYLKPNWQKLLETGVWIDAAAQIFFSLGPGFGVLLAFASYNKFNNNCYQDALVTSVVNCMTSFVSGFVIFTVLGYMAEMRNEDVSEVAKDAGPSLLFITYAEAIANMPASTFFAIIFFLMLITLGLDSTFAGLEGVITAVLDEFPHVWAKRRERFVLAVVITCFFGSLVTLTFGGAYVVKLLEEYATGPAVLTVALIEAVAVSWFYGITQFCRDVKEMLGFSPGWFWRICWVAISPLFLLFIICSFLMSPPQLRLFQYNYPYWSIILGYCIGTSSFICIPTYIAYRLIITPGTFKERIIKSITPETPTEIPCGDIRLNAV

With `CN1CC2CN(c3ccc4sccc4c3)CC2C1.Cl` (stereo not drawn) [Example 15, 2-(Benzo[b]thiophen-5-yl)-5-methyloctahydropyrrolo[3,4-c]pyrrole hydrochloride], in the assay on mice [1] (setting [5]), the minimal effective dose is 2.5 mg/kg. Further, the inhibition at 1 µM in assay [2] (setting [6]) turned out to be 70%. The same compound had a pIC50 in assay [3] of more than 8.00.

For `CN1CC2CN(c3ccc(Cl)c(Cl)c3)CC2C1` (stereo not drawn) [Example 17, 2-(3,4-dichlorophenyl)-5-methyloctahydropyrrolo[3,4-c]pyrrole], in the assay on mice [1] (setting [5]), the minimal effective dose worked out at 5 mg/kg. The inhibition at 1 µM in assay [2] (setting [6]) turned out to be 93%. The negative-log IC50 (pIC50) in assay [3] is more than 8.00.

As for `O=C(O)/C=C\C(=O)O.c1ccc2sc(N3CC4CNCC4C3)cc2c1` (stereo not drawn) [Example 22, 2-(Benzo[b]thiophen-2-yl)octahydropyrrolo[3,4-c]pyrrole maleate], in the assay with mice [4] (setting [7]), the minimal effective dose turned out to be 10 mg/kg. Besides, the negative logarithm of the IC50 (pIC50) in assay [3] is more than 7.30.

On to `Fc1c(N2CC3CNCC3C2)ccc2ccccc12.O=C(O)/C=C\C(=O)O` (stereo not drawn) [Example 31, 2-(1-fluoronaphthalen-2-yl)octahydropyrrolo[3,4-c]pyrrole maleate], for which, in the assay with mice [1] (setting [5]), the minimal effective dose is 20 mg/kg. In addition, in assay [2], the inhibition at 1 µM was 101%. In addition, in assay [3], the negative-log IC50 (pIC50) is more than 8.00.

Take `O=C(O)/C=C\C(=O)O.c1ccc2cc(N3CCC4CNCC4CC3)ccc2c1` (stereo not drawn) [Example 39, 6-(naphthalen-2-yl)decahydropyrrolo[3,4-d]azepine maleate]: in the assay with mice [4] (setting [8]), the minimal effective dose came to 10 mg/kg. For the same compound, in assay [2], the inhibition at 1 µM worked out at 92%. In assay [3], the pIC50 was more than 8.00.

Take `O=C(O)/C=C\C(=O)O.c1cc(N2CC3CNCC3C2)c2sccc2c1` (stereo not drawn) [Example 10, 2-(Benzo[b]thiophen-7-yl)octahydropyrrolo[3,4-c]pyrrole maleate]: the minimal effective dose in the assay with mice [1] (setting [9]) turned out to be 10 mg/kg. The inhibition at 1 µM in assay [2] is 86%. In assay [3], this compound had a pIC50 of more than 7.30.

In the case of `CN1CC2CN(c3ccc4ccccc4c3F)CC2C1.O=C(O)/C=C\C(=O)O` (stereo not drawn) [Example 32, 2-(1-fluoronaphthalen-2-yl)-5-methyloctahydropyrrolo[3,4-c]pyrrole maleate], the minimal effective dose with mice [1] (setting [10]) amounted to 20 mg/kg. Also, the inhibition at 1 µM in assay [2] was found to be 103%. The compound also had a negative logarithm of the IC50 (pIC50) in assay [3] of more than 8.00.

For the compound `CCN1CC2CN(c3ccc4ccccc4c3)CC2C1.O=C(O)C(=O)O` (stereo not drawn) [Example 25, 2-ethyl-5-(naphthalen-2-yl)octahydropyrrolo[3,4-c]pyrrole oxalate], in the assay with mice [4] (setting [8]), the minimal effective dose is 10 mg/kg.

Take `CN1CC2CN(c3cccc4ccsc34)CC2C1.O=C(O)C(=O)O` (stereo not drawn) [Example 11, 2-(Benzo[b]thiophen-7-yl)-5-methyloctahydropyrrolo[3,4-c]pyrrole oxalate]: the minimal effective dose with mice [1] (setting [9]) came out at 10 mg/kg. The inhibition at 1 µM in assay [2] (setting [6]) came out at 86%. Besides, the negative-log IC50 (pIC50) in assay [3] is more than 7.30.

Consider `Clc1cccc(N2CCC3CNCC3CC2)c1Cl.O=C(O)/C=C\C(=O)O` (stereo not drawn) [Example 37, 6-(2,3-dichlorophenyl)decahydropyrrolo[3,4-d]azepine maleate], for which the minimal effective dose in the assay on mice [1] (setting [9]) was 10 mg/kg. Moreover, the inhibition at 1 µM in assay [2] was found to be 80%. In assay [3], this compound gave a pIC50 of more than 8.00.

Regarding `Br.CN1CC2CN(c3cccc4sccc34)CC2C1` (stereo not drawn) [Example 13, 2-(Benzo[b]thiophen-4-yl)-5-methyloctahydropyrrolo[3,4-c]pyrrole hydrobromide], the minimal effective dose in the assay with mice [1] (setting [9]) came to 5 mg/kg. The inhibition at 1 µM in assay [2] was found to be 70%. The pIC50 in assay [3] was more than 7.30.

For `O=C(O)/C=C\C(=O)O.c1cc(N2CC3CCNCCC3C2)c2ccsc2c1` (stereo not drawn) [Example 41, 2-(Benzo[b]thiophen-4-yl)decahydropyrrolo[3,4-d]azepine maleate], the minimal effective dose with mice [4] (setting [8]) was 10 mg/kg. The inhibition at 1 µM in assay [2] stood at 86%. Besides, the pIC50 in assay [3] was more than 8.00.

Consider `Fc1ccc2cc(N3CC4CNCC4C3)ccc2c1.O=C(O)/C=C\C(=O)O` (stereo not drawn) [Example 29, 2-(6-fluoronaphthalen-2-yl)octahydropyrrolo[3,4-c]pyrrole maleate], for which the minimal effective dose in the assay on mice [1] (setting [10]) came to 5 mg/kg. The compound also showed a pIC50 in assay [3] of more than 8.00.

Regarding `O=C(O)/C=C\C(=O)O.c1cc(N2CCC3CNCC3CC2)c2sccc2c1` (stereo not drawn) [Example 36, 6-(Benzo[b]thiophen-7-yl)decahydropyrrolo[3,4-d]azepine maleate], the minimal effective dose in the assay with mice [4] (setting [8]) was 10 mg/kg. Further, the inhibition at 1 µM in assay [2] is 89%. For the same compound, the pIC50 in assay [3] was more than 8.00.

Turning to `CN1CC2CN(c3cccc(Cl)c3Cl)CC2C1.O=C(O)C(=O)O` (stereo not drawn) [Example 28, 2-(2,3-dichlorophenyl)-5-methyloctahydropyrrolo[3,4-c]pyrrole oxalate], the minimal effective dose in the assay on mice [4] (setting [7]) was 10 mg/kg. The inhibition at 1 µM in assay [2] was determined as 82%. In assay [3], this compound showed a pIC50 of more than 6.70.

On to `c1ccc2cc(N3CC4CNCC4C3)ccc2c1` (stereo not drawn) [Example 1, 2-(naphthalen-2-yl)octahydropyrrolo[3,4-c]pyrrole], for which the minimal effective dose with mice [1] (setting [5]) came out at 5 mg/kg. Also, in assay [2], the inhibition at 1 µM stood at 106%. The compound also showed a pIC50 in assay [3] of more than 8.00.

Turning to `Fc1cc(N2CC3CNCC3C2)c2ccsc2c1` (stereo not drawn) [Example 69, 2-(6-fluorobenzothiophen-4-yl)octahydropyrrolo[3,4-c]pyrrole dihydrochloride], in the assay on mice [1] (setting [9]), the minimal effective dose is 10 mg/kg. Besides, in assay [3], the negative-log IC50 (pIC50) is more than 6.70.

With `Cl.c1ccc2cc(C3CC4CNCC4C3)ccc2c1` (stereo not drawn) [Example 55, 5-(naphthalen-2-yl)octahydrocyclopenta[c]pyrrole hydrochloride], the minimal effective dose in the assay with mice [1] (setting [5]) was found to be 5 mg/kg. In assay [2] (setting [6]), the inhibition at 1 µM worked out at 75%. In assay [3], this compound showed a negative-log IC50 (pIC50) of more than 8.00.

On to `Clc1ccc(N2CC3CNCC3C2)cc1Cl` (stereo not drawn) [Example 16, 2-(3,4-dichlorophenyl)octahydropyrrolo[3,4-c]pyrrole], for which, in the assay on mice [1] (setting [9]), the minimal effective dose came out at 3 mg/kg. The inhibition at 1 µM in assay [2] (setting [6]) came to 96%. Moreover, the pIC50 in assay [3] was more than 8.00.

Regarding `O=C(O)/C=C\C(=O)O.c1cc(N2CCC3CNCC3CC2)c2ccsc2c1` (stereo not drawn) [Example 38, 6-(Benzo[b]thiophen-4-yl)decahydropyrrolo[3,4-d]azepine maleate], in the assay with mice [4] (setting [8]), the minimal effective dose came out at 10 mg/kg. For the same compound, the inhibition at 1 µM in assay [2] came to 103%. Moreover, the negative logarithm of the IC50 (pIC50) in assay [3] is more than 8.00.

Consider `c1cc2cc(N3CCC4CNCC4CC3)ccc2s1` (stereo not drawn) [Example 7, 6-(Benzothiophen-5-yl)decahydropyrrolo[3,4-d]azepine maleate], for which the minimal effective dose in the assay on mice [4] (setting [8]) was 10 mg/kg. In addition, the inhibition at 1 µM in assay [2] is 101%. This compound gave a pIC50 in assay [3] of more than 8.00.

`O=C(O)/C=C\C(=O)O.c1cc2cc(N3CC4CNCC4C3)ccc2s1` (stereo not drawn) [Example 14, 2-(Benzo[b]thiophen-5-yl)octahydropyrrolo[3,4-c]pyrrole maleate]: the minimal effective dose with mice [1] (setting [9]) came to 3 mg/kg. In addition, the inhibition at 1 µM in assay [2] stood at 99%. In assay [3], the pIC50 is more than 8.00.

With `Cl.c1ccc2sc(C3CC4CNCC4C3)cc2c1` (stereo not drawn) [Example 50, 5-(benzothiophen-2-yl)octahydrocyclopenta[c]pyrrole hydrochloride], the minimal effective dose in the assay with mice [1] (setting [9]) is 10 mg/kg. The inhibition at 1 µM in assay [2] (setting [6]) worked out at 83%. Also, the pIC50 in assay [3] was more than 6.70.

Take `O=C(O)/C=C\C(=O)O.c1cc(N2CC3CNCC3C2)c2ccsc2c1` (stereo not drawn) [Example 12, 2-(Benzo[b]thiophen-4-yl)octahydropyrrolo[3,4-c]pyrrole maleate]: the minimal effective dose in the assay on mice [1] (setting [9]) was 3 mg/kg. The inhibition at 1 µM in assay [2] amounted to 101%. Also, in assay [3], the negative-log IC50 (pIC50) is more than 7.30.

In the case of `Clc1ccc(N2CCC3CNCC3CC2)cc1Cl` (stereo not drawn) [Example 35, 6-(3,4-dichlorophenyl)decahydropyrrolo[3,4-d]azepine], the minimal effective dose with mice [1] (setting [5]) turned out to be 20 mg/kg. Also, the inhibition at 1 µM in assay [2] (setting [6]) stood at 98%. This compound showed a negative logarithm of the IC50 (pIC50) in assay [3] of more than 8.00.

For the compound `CN1CC2CN(c3ccc4ccccc4c3)CC2C1` (stereo not drawn) [Example 2, 2-methyl-5-(naphthalen-2-yl)octahydropyrrolo[3,4-c]pyrrole], the minimal effective dose in the assay on mice [1] (setting [5]) stood at 5 mg/kg. The inhibition at 1 µM in assay [2] (setting [6]) worked out at 97%. In addition, the pIC50 in assay [3] is more than 8.00.

As for `CN1CC2CN(c3ccc(C(F)(F)F)cc3)CC2C1.O=C(O)C(=O)O` (stereo not drawn) [Example 81, 2-methyl-5-(4-(trifluoromethyl)phenyl)octahydropyrrolo[3,4-c]pyrrole oxalate], in the assay on mice [1] (setting [9]), the minimal effective dose came to 10 mg/kg. The negative logarithm of the IC50 (pIC50) in assay [3] is more than 7.30.

Values taken from patent US20220227773A1, “FUSED RING COMPOUND, PREPARATION METHOD THEREFOR AND USE THEREOF” (SHANGHAI INSTITUTE OF MATERIA MEDICA, CHINESE ACADEMY OF …, priority 2019, published 2022).
